Test results as given in patent publication US20250125004A1, “SYSTEMS AND METHODS FOR POST-TRANSLATIONAL MODIFICATION-INSPIRED DRUG DESIGN AND SCREENING” (Ensem Therapeutics, Inc., priority 2021, published 2025).

How the values were obtained:
[1] = target: c-Src Y419 autophosphorylation (His-tag Src-k protein) (Homo sapiens, UniProt P12931); assay: Amplified Luminescent Proximity Homogeneous Assay (ALPHA), auto-phosphorylation of c-Src Y419; format: biochemical; details: 90 min incubation, n=3, read-out: IC50, inhibition of autophosphorylation of c-Src Y419
Chain of c-Src Y419 autophosphorylation (His-tag Src-k protein) (P12931 254-536): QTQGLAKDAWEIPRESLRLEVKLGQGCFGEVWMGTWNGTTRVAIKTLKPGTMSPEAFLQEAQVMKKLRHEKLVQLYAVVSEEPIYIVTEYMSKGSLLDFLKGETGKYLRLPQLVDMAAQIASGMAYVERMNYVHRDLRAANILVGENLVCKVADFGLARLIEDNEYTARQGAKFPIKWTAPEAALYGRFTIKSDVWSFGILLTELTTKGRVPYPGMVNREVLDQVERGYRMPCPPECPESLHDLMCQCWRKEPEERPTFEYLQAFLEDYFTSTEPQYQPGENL
Method: Human c-Src kinase domain (Src-k, including WT and C280S, 254-536) with a TEV protease cleavable N-terminal 6×-His tag was cloned into pET28a vector and co-expressed with full length YopH phosphatase cloned to pCDFDuet-1 vector in Escherichia coli BL21 (DE3) cells. Cells were cultured in LB medium at 37° C. and induced with 0.4 mM IPTG at 18° C. for 16 hours. Proteins were purified using HisTrap FF column (GE Healthcare) in buffer containing 50 mM Hepes pH=8.0, 500 mM NaCl, 5% glycerol and imidazole (25 mM for loading, 150 mM for elution). After TEV enzyme cleavage, proteins were loaded to Hitrap Q FF (GE Healthcare) in buffer containing 20 mM Hepes pH=8.0, 5% glycerol, 1 mM DTT (QA) and eluted with a linear gradient of 10-30% buffer QB (buffer QA plus 1M NaCl). Then proteins were further purified by Superdex75™ 10/300 GL column (GE Healthcare) and change the buffer to 20 mM Hepes pH=7.4, 150 mM NaCl, 1 mM DTT. The ability of compounds to inhibit the auto-phosphorylation of c-Src Y419 was determined by Amplified Luminescent Proximity Homogeneous Assay (ALPHA). ALPHA assay was carried out in assay buffer containing 20 mM Hepes, pH=7.4, 0.1% Triton X-100, 1 mM DTT, 0.1% bovine serum albumin (w/v)). […] Finally, the signals were measured in ALPHA protocol using EnVision reader and the IC50 values analyzed in Graphpad Prism 8.0.

[2] = target: T1, c-Src (Homo sapiens, UniProt P12931); assay: Intact protein mass by HPLC/MS, covalent binding; details: about 20 μM c-Src, 100 μM compound, 4° C., 8 hours; expected 316.34 Da for a single covalent adduct
T1 sequence (P12931 86-536): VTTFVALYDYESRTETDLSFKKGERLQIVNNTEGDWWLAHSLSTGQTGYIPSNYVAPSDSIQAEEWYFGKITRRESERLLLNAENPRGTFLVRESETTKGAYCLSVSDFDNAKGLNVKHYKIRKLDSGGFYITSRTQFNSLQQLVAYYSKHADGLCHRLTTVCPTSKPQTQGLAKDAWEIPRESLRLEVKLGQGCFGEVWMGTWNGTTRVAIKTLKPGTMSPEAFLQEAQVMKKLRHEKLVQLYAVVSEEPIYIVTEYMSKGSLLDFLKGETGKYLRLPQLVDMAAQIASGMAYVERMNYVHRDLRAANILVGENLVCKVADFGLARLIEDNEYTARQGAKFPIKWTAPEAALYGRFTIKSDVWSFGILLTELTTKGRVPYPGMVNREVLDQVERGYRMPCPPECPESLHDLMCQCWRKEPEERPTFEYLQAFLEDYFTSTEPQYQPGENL
Method: c-Src protein was diluted to approximately 20 μM in final buffer and incubated with compound at a final concentration of 100 μM or same volume of DMSO at 4° C. for 8 hours. Then, the protein samples were diluted into aqueous solution containing 0.1% formic acid (about 1 mg/mL), and 2 μg of the target protein samples were took for LC/MS analysis. Intact protein high-resolution mass spectrometry was performed using Ultimate 3000 LC liquid chromatograph and LTQ Orbitrap mass spectrometer equipped with HESI ion source (Thermo Fisher, CA). BioPharma Finder software (version 2.0, Thermal Fischer, California) was used to process the raw LC-MS data, and the […] deconvolution algorithm was used to obtain the intact protein masses.

[3] = target: c-Src (Src-k protein) (Homo sapiens, UniProt P12931); assay: Protein thermal shift (PTS) assay; format: binding
Chain of c-Src (Src-k protein) (P12931 254-536): as the sequence (P12931 254-536) above
Method: Human c-Src kinase domain (Src-k, including WT and C280S, 254-536) with a TEV protease cleavable N-terminal 6×-His tag was cloned into pET28a vector and co-expressed with full length YopH phosphatase cloned to pCDFDuet-1 vector in Escherichia coli BL21 (DE3) cells. Cells were cultured in LB medium at 37° C. and induced with 0.4 mM IPTG at 18° C. for 16 hours. Proteins were purified using HisTrap FF column (GE Healthcare) in buffer containing 50 mM Hepes pH=8.0, 500 mM NaCl, 5% glycerol and imidazole (25 mM for loading, 150 mM for elution). After TEV enzyme cleavage, proteins were loaded to Hitrap Q FF (GE Healthcare) in buffer containing 20 mM Hepes pH=8.0, 5% glycerol, 1 mM DTT (QA) and eluted with a linear gradient of 10-30% buffer QB (buffer QA plus 1M NaCl). Then proteins were further purified by Superdex75TM 10/300 GL column (GE Healthcare) and change the buffer to 20 mM Hepes pH=7.4, 150 mM NaCl, 1 mM DTT. Protein thermal shift (PTS) assays were performed on a QuantStudioTM 6 Flex Real-time PCR system (Applied Biosystems). […] Src-k protein, 5×SYPRO® orange (Molecular Probes) and different concentrations of compounds were mixed in 20 μL final buffer and added to 96-well plates (DN Biotech). According to the standard protocol, the reaction system was heated from 25° C. to 95° C. within 25 minutes, and the fluorescence signal was monitored in real time. Protein […] ShiftTM Software Version 1.2 (Life Technologies) was used to determine the Tm value and Graphpad Prism 8.0 was used to draw the curves. The Y419-phosphorylated protein used was obtained by incubating Src-k protein with 5 mM MgCl2 and 10 mM ATP overnight, and then desalting it into final buffer.

[4] = target: T1, c-Src; assay: Homogeneous time-resolved fluorescence (HTRF) assay, KinEASE-TK kit; format: biochemical; details: 120 min incubation, n=3 for DC-Srci-6668, read-out: IC50, inhibition of c-Src catalytic activity
Method: Based on this, covalent docking was performed against an in-house compound library, consisting of 720 compounds with reactive chemical groups. After score ranking and cluster analysis (FIG. 6B), 16 compounds were selected and purchased from ChemDiv (San Diego, CA, USA) for subsequent biochemical evaluations. Although IC50 values are time-dependent for covalent inhibitor and cannot be used to fully characterize the true binding affinity, they are also recognized as an indicator for preliminary evaluating the biological activity of covalent compounds. The homogeneous time resolved fluorescence (HTRF) assay was then conducted to determine the compound inhibitory activity, using the HTRF KinEASE-TK kit (Cisbio, Bedford, MA, USA). […] The cells were infected with baculovirus at 27° C. for 48-72 hours before collection. Cells were lysed in buffer containing 20 mM Hepes pH=7.4, 150 mM NaCl, 1 mM DTT, 1× protease inhibitor cocktail (Roche) and 1 mM PMSF. […] The ability of compounds to inhibit the phosphorylation of a peptide substrate by c-Src kinase was evaluated by homogeneous time-resolved fluorescence (HTRF) using KinEASE-TK kit (Cisbio, Bedford, MA, USA). […] Finally, fluorescence was measured at 615 nm and 665 nm using EnVision reader (PerkinElmer). The results were calculated as follows: ratio=OD665/OD615 and the IC50 values were analyzed in Graphpad Prism 8.0.

- IC50 [1]: 3.88 ± 0.586 µM
- increase of MW of c-Src after compound treatment [2]: 316.64 Da
- positive Tm shift of c-Src ([3]; concentration ratio 1:5): 1.50 °C
- positive Tm shift of c-Src ([3]; concentration ratio 1:10): 2.56 °C
- positive Tm shift of c-Src ([3]; concentration ratio 1:20): 3.30 °C
- IC50 [4]: 2.39 ± 0.164 µM
SMILES: O=C(NC1CCCC1)C(c1ccc(F)cc1)N(C(=O)CCl)C1CC1 (stereo not drawn) [DC-Srci-6668]
